Measured values as given in patent US4328215A, “Method of reducing or avoiding the mutagenic activity of drugs” (The Johns Hopkins University, priority 1977, dated 1982).
“And” between values parts separate entries of the source, which are not always exact repeats. Equal values may be shown once.

Legend:
Salmonella typhimurium = experiment: Mutagenic activity of urines of treated germ-free and conventional rats (Ames); format: in vivo; settings: for Revertants in excess of controls excreted in 24 hrs: 250 mg/kg oral
Experimental: Urine analysis (referred to above as the "Ames" test).
The schistosomicide 4-nitro-4'-[…] diphenylamine (CGP 4540) was orally administered to two germ-free rats and two conventional male Fisher rats weighing 220-240 grams. Urines from the thus treated animals were analyzed for mutagenic activity and assays were carried out as described in Journal of Pharmacology and Experimental Therapeutics, 200, 1-9 (1977) using the methodology of Ames et al (Mutat. Res., 31, 347-364). The mutagenic activities of the urines were determined in both the absence and presence of S9 (hepatic microsomal) fractions of phenobarbital pretreated rats (Ames et al, Proc. Nat. Acad. Sci, U.S.A., 71, 737-741, 1974) without and with preincubation with β-glucuronidase.
For test purposes, the isothiocyanate derivative was dissolved at 40° C. in a polyethoxylated vegetable oil (Emulphor El 620) to a final concentration of 50 mg/ml. Following sterilization by means of millipore filtration the mixture was administered by gastric intubation to two germ-free and two conventional male Fisher rats (weighing 220 to 240 gms) at a dose of 250 mg/kg of the isothiocyanate. One germ-free and one conventional rat that were given the filtered vehicle without the drug served as controls. The urines of each animal were collected for a period of 48 hours subsequent to administration of the drug or the filtered vehicle.
The germ-free rats used in the tests were kept in Tresder type plastic isolators. After administration of the isothiocyanate or the vehicle the germ-free rats were transferred into individual metabolism cages in the isolators.
The mutagenic activity determined for the test animals, expressed in terms of revertants in excess of the controls, is shown below: […]

bile ducts and the liver = experiment: Acute hepatotoxic effects; format: in vivo
Excerpt: A further advantage of the invention is that, at least in some instances, acute hepatotoxic effects resulting from use of an antischistosomal or other drug and caused by a metabolic product, may be prevented. […] Accordingly, in this particular situation the administration of the antibacterial agent not only prevents the mutagenic effects of a metabolic product of the intestinal bacterial flora but also the acute hepatotoxic effects which might otherwise be encountered.

[1] = system: Salmonella typhimurium Strain TA 100; experiment: Urine analysis (Ames test) of mice treated with CGP 4540, strain TA 100, with/without S9;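 also: mouse urine gathered in 24 h periods after drug dosing, 0.1 and 0.25 ml aliquots plated on the bacteria, plates counted following 48 h at 37 °C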
Experimental: Mice are placed into a metabolism cage and control urines are collected on ice for 24 hours. These animals are then treated with the drug and urine is collected in refrigerated containers for the two subsequent 24-hour periods. The volume of the urine is measured and the urine is stored at -80° C. until assayed.
Urine specimens are thawed, centrifuged at 10,000×g for 15 minutes and sterilized by filtration through a 0.22 μm Millipore filter. Effects of 0.1 and 0.25 ml aliquots are tested on strains TA 100 with and without added S9 microsomal fraction. Plates are counted after incubation at 37° C. for 48 hours. The dose response at these two urine concentrations is used to calculate the number of revertants induced by the total volume of urine excreted in 24 hours. […] Aliquots of this mixture are tested after adjustment to pH 7 in the absence and the presence of the S9 fraction.
The mice were infected with S. typhimurium TA 100 as the test strain and the CGP 4540 was formulated as in Example 1. […] Three control mice were employed.

[2] = Conversion of CGP 4540 to mutagenic metabolite by route; format: in vivo; settings: oral vs injected intramuscularly or intravenously
Schistosoma mansoni [3] = experiment: Antischistosomal activity in infected mice; format: in vivo
Experimental: Six groups of test mice, infected with Schistosoma mansoni, were treated as follows:
(1) a single dose of formulated CGP 4540 (10 mg/kg) with no antibiotic administered;
(2) single dose of formulated CGP 4540 as in (1) but preceded by 100 mg/kg of erythromycin (base);
(4) same as (1) but using a CGP 4540 dosage of 15 mg/kg;
(5) same as (4) but preceded by a 100 mg/kg dose of erythromycin; and
All drugs were administered by gastric intubation.

[4] = Thin layer chromatography of urine extracts for mutagenic metabolite; format: in vivo, rats
Schistosoma mansoni [5] = experiment: Antischistosomal activity in infected mice; format: in vivo; remark: listed apart in the source
[6] = succinylsulfathiazole 1 g/kg once daily for 3 days before CGP 4540
[7] = CGP 4540 10 mg/kg single dose, no antibiotic, 196 mice, 10 mg/kg
[8] = CGP 4540 10 mg/kg, erythromycin (base) 100 mg/kg
[9] = CGP 4540 10 mg/kg, erythromycylamine 100 mg/kg
[10] = CGP 4540 15 mg/kg, erythromycylamine 100 mg/kg
[11] = CGP 4540 10 mg/kg, bacitracin 440 mg/kg
[12] = CGP 4540 10 mg/kg, succinylsulfathiazole 1 g/kg + bacitracin 220 mg/kg
[13] = CGP 4540 15 mg/kg, erythromycin (base) 100 mg/kg
[14] = CGP 4540 15 mg/kg, no antibiotic
[15] = CGP 4540 20 mg/kg, bacitracin 440 mg/kg
[16] = CGP 4540 20 mg/kg, no antibacterial
[17] = CGP 4540 20 mg/kg, succinylsulfathiazole 1 g/kg + bacitracin 220 mg/kg

O=[N+]([O-])c1ccc(Nc2ccc(N=C=S)cc2)cc1 [CGP 4540]
Mutagenic activity after incubation of urines with β-glucuronidase (Salmonella typhimurium; 3 hrs at 37° C., conventional rats): No further increase in mutagenic activity | Revertants in excess of controls excreted in 24 hrs (Salmonella typhimurium; conventional rats, urine 0-24 hrs, +S9, 250 mg/kg): 4,900 revertants excreted in 24 hrs and 5,000 revertants excreted in 24 hrs | Revertants in excess of controls excreted in 24 hrs (Salmonella typhimurium; conventional rats, urine 0-24 hrs, -S9, 250 mg/kg): 3,800 revertants excreted in 24 hrs and 3,750 revertants excreted in 24 hrs | Revertants in excess of controls excreted in 24 hrs (Salmonella typhimurium; conventional rats, urine 24-48 hrs, +S9, 250 mg/kg): 2,800 revertants excreted in 24 hrs and 3,050 revertants excreted in 24 hrs | Revertants in excess of controls excreted in 24 hrs (Salmonella typhimurium; conventional rats, urine 24-48 hrs, -S9, 250 mg/kg): 1,600 revertants excreted in 24 hrs and 1,200 revertants excreted in 24 hrs | Revertants in excess of controls excreted in 24 hrs (Salmonella typhimurium; germ-free rats, urine 0-24 hrs, +S9): 0 revertants excreted in 24 hrs | Revertants in excess of controls excreted in 24 hrs (Salmonella typhimurium; germ-free rats, urine 0-24 hrs, -S9): 0 revertants excreted in 24 hrs | Revertants in excess of controls excreted in 24 hrs (Salmonella typhimurium; germ-free rats, urine 24-48 hrs, +S9): 0 revertants excreted in 24 hrs | Revertants in excess of controls excreted in 24 hrs (Salmonella typhimurium; germ-free rats, urine 24-48 hrs, -S9): 0 revertants excreted in 24 hrs | Urinary mutagenic metabolite in germ-free rats (Salmonella typhimurium; urines of germ-free rats (1) and (2)): no mutagenic metabolite was detectable | Lesions in bile ducts and liver (bile ducts and the liver; 500 mg/kg (50 times the curative dose)): some destructive lesions may be produced in the bile ducts and the liver | Lesions in bile ducts and liver with antibacterial agent (bile ducts and the liver; 500 mg/kg, co-administration of erythromycin): these lesions are prevented | Urine revertants in excess of controls ([1]; CGP 4540 100 mg/kg oral, no pretreatment, day 1, +S9): 239 revertants per total 24 hour u | Urine revertants in excess of controls ([1]; CGP 4540 100 mg/kg oral, no pretreatment, day 1, no S9): 56 revertants per total 24 hour u | Urine revertants in excess of controls ([1]; CGP 4540 100 mg/kg oral, no pretreatment, day 2, +S9): 30 revertants per total 24 hour u | Urine revertants in excess of controls ([1]; CGP 4540 100 mg/kg oral, no pretreatment, day 2, no S9): 11 revertants per total 24 hour u | Urine revertants in excess of controls ([1]; CGP 4540 100 mg/kg oral, succinylsulfathiazole 1 g/kg, day 1, +S9): 108 revertants per total 24 hour u | Urine revertants in excess of controls ([1]; CGP 4540 100 mg/kg oral, succinylsulfathiazole 1 g/kg, day 1, no S9): 37 revertants per total 24 hour u | Urine revertants in excess of controls ([1]; CGP 4540 100 mg/kg oral, succinylsulfathiazole 1 g/kg, day 2, +S9): 12 revertants per total 24 hour u | Urine revertants in excess of controls ([1]; CGP 4540 100 mg/kg oral, succinylsulfathiazole 1 g/kg, day 2, no S9): 0 revertants per total 24 hour u | Urine revertants in excess of controls ([1]; CGP 4540 250 mg/kg oral, bacitracin 220 mg/kg, day 1, +S9): 96 revertants per total 24 hour u | Urine revertants in excess of controls ([1]; CGP 4540 250 mg/kg oral, bacitracin 220 mg/kg, day 1, no S9): 31 revertants per total 24 hour u | Urine revertants in excess of controls ([1]; CGP 4540 250 mg/kg oral, bacitracin 220 mg/kg, day 2, +S9): 10 revertants per total 24 hour u | Urine revertants in excess of controls ([1]; CGP 4540 250 mg/kg oral, bacitracin 220 mg/kg, day 2, no S9): 4 revertants per total 24 hour u | Urine revertants in excess of controls ([1]; CGP 4540 250 mg/kg oral, bacitracin 440 mg/kg, day 1, +S9): 0 revertants per total 24 hour u | Urine revertants in excess of controls ([1]; CGP 4540 250 mg/kg oral, bacitracin 440 mg/kg, day 1, no S9): 0 revertants per total 24 hour u | Urine revertants in excess of controls ([1]; CGP 4540 250 mg/kg oral, bacitracin 440 mg/kg, day 2, +S9): 0 revertants per total 24 hour u | Urine revertants in excess of controls ([1]; CGP 4540 250 mg/kg oral, bacitracin 440 mg/kg, day 2, no S9): 0 revertants per total 24 hour u | Urine revertants in excess of controls ([1]; CGP 4540 250 mg/kg oral, erythromycin base 100 mg/kg, day 1, +S9): 0 revertants per total 24 hour u | Urine revertants in excess of controls ([1]; CGP 4540 250 mg/kg oral, erythromycin base 100 mg/kg, day 1, no S9): 0 revertants per total 24 hour u | Urine revertants in excess of controls ([1]; CGP 4540 250 mg/kg oral, erythromycin base 100 mg/kg, day 2, +S9): 0 revertants per total 24 hour u | Urine revertants in excess of controls ([1]; CGP 4540 250 mg/kg oral, erythromycin base 100 mg/kg, day 2, no S9): 0 revertants per total 24 hour u | Urine revertants in excess of controls ([1]; CGP 4540 250 mg/kg oral, no pretreatment, day 1, +S9): 541 revertants per total 24 hour u | Urine revertants in excess of controls ([1]; CGP 4540 250 mg/kg oral, no pretreatment, day 1, no S9): 120 revertants per total 24 hour u | Urine revertants in excess of controls ([1]; CGP 4540 250 mg/kg oral, no pretreatment, day 2, +S9): 89 revertants per total 24 hour u | Urine revertants in excess of controls ([1]; CGP 4540 250 mg/kg oral, no pretreatment, day 2, no S9): 32 revertants per total 24 hour u | Urine revertants in excess of controls ([1]; CGP 4540 250 mg/kg oral, succinylsulfathiazole 1 g/kg + bacitracin 220 mg/kg, day 1, +S9): 0 revertants per total 24 hour u | Urine revertants in excess of controls ([1]; CGP 4540 250 mg/kg oral, succinylsulfathiazole 1 g/kg + bacitracin 220 mg/kg, day 1, no S9): 0 revertants per total 24 hour u | Urine revertants in excess of controls ([1]; CGP 4540 250 mg/kg oral, succinylsulfathiazole 1 g/kg + bacitracin 220 mg/kg, day 2, +S9): 0 revertants per total 24 hour u | Urine revertants in excess of controls ([1]; CGP 4540 250 mg/kg oral, succinylsulfathiazole 1 g/kg + bacitracin 220 mg/kg, day 2, no S9): 0 revertants per total 24 hour u | Urine revertants in excess of controls ([1]; CGP 4540 250 mg/kg oral, succinylsulfathiazole 1 g/kg, day 1, +S9): 269 revertants per total 24 hour u | Urine revertants in excess of controls ([1]; CGP 4540 250 mg/kg oral, succinylsulfathiazole 1 g/kg, day 1, no S9): 73 revertants per total 24 hour u | Urine revertants in excess of controls ([1]; CGP 4540 250 mg/kg oral, succinylsulfathiazole 1 g/kg, day 2, +S9): 30 revertants per total 24 hour u | Urine revertants in excess of controls ([1]; CGP 4540 250 mg/kg oral, succinylsulfathiazole 1 g/kg, day 2, no S9): 7 revertants per total 24 hour u | Mutagenic urinary metabolite [1, 6]: very marked decrease | Increase in conversion to mutagenic metabolite, oral vs intramuscular or intravenous [2]: 50% | Mice with parasitological cures (Schistosoma mansoni [3]; [7]): 95% | Mice with parasitological cures (Schistosoma mansoni [3]; [8]): 100% | Reduction in number of worms (Schistosoma mansoni [3]; [8]): 100% | Reduction in number of worms (Schistosoma mansoni [3]; [9]): 100% | Reduction in number of worms (Schistosoma mansoni [3]; [10]): 100% | Schistosomicidal activity of single low doses with or without antibacterial agents (Schistosoma mansoni [3]; single low doses, with vs without antibacterial agents): nearly or equally as effective | Mutagenic activity in the host mediated assay (S. typhimurium TA 100; in vivo, po): no mutagenic activity was detectable | Mutant colonies found in the host-mediated assay (S. typhimurium TA 100; [6]): very marked decrease | Spot with Rf similar to isolated mutagenic metabolite in urine extract ([4]; conventional rats, 250 mg/kg oral, urine 0 to 24 hours): recognizable | Spot with Rf similar to isolated mutagenic metabolite in urine extract ([4]; germ-free rats): No such spot appeared | Reduction in number of worms (Schistosoma mansoni [5]; CGP 4540 10 mg/kg single dose, no antibiotic, 196 mice): 99% | Mice with parasitological cures (Schistosoma mansoni [5]; [7]): 96% | Mice with parasitological cures (Schistosoma mansoni [5]; [11]): 88% | Reduction in no. of worms (Schistosoma mansoni [5]; [11]): 98% | Mice with parasitological cures (Schistosoma mansoni [5]; [9]): 100% | Mice with parasitological cures (Schistosoma mansoni [5]; [12]): 92% | Reduction in no. of worms (Schistosoma mansoni [5]; [12]): 99% | Mice with parasitological cures (Schistosoma mansoni [5]; [13]): 100% | Reduction in number of worms (Schistosoma mansoni [5]; [13]): 100% | Mice with parasitological cures (Schistosoma mansoni [5]; [10]): 100% | Mice with parasitological cures (Schistosoma mansoni [5]; [14]): 100% | Reduction in number of worms (Schistosoma mansoni [5]; [14]): 100% | Mice with parasitological cures (Schistosoma mansoni [5]; [15]): 100% | Reduction in no. of worms (Schistosoma mansoni [5]; [15]): 100% | Mice with parasitological cures (Schistosoma mansoni [5]; [16]): 100% | Reduction in no. of worms (Schistosoma mansoni [5]; [16]): 100% | Mice with parasitological cures (Schistosoma mansoni [5]; [17]): 100% | Reduction in no. of worms (Schistosoma mansoni [5]; [17]): 100% | Curative antischistosomal activity after preceding antibiotic treatment (Schistosoma mansoni [5]; erythromycin base or erythromycylamine): not reduced | Effectiveness against schistosomiasis, oral vs intramuscular (Schistosoma mansoni [5]; formulated CGP 4540, oral and intramuscular): about equally effective | Antischistosomal activity after reduction of bacterial flora (Schistosoma mansoni [5]; succinylsulfathiazole 1 g/kg once daily for 3 days, oral): do not appear to affect the antischistosomal activity
